Source: the supplement of paper PMC11451515

Columns and labels:
Settings in all cases: 48 h
[1] = test system: NOMO1; test: AUC of viability dose-response curve (% viability x log10 dose units); higher = less sensitive
Summary of the method: (§1)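 Area under the curve was integrated by trapezoidal rule from a log-logistic fit of normalised viability, with curves exceeding full viability scaled and quality-control failures removed. The fit had four parameters over log10 doses. Viability came from CellTiter-Glo One luminescence, normalised per plate to DMSO and cell-free wells, after leukemia cells adapted to each medium (500 or 1000 cells/well, 1536-well plates) were exposed to library compounds in DMSO for 48 h at 37°C. The 11 threefold doses ran from 47 μM to 0.79 nM.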

[2] = test system: SEM cells; test: as above
Summary of the method: as §1

[3] = test system: P12-Ichikawa; test: as above
Summary of the method: as §1

[4] = test system: NOMO1; test: cell viability relative to DMSO control; higher = less cytotoxic
Summary of the method: (§2)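 NOMO1 or SEM (500 cells/well) or P12-Ichikawa (1000 cells/well) leukemia cells were adapted for at least four passages in each medium. They were seeded in 1536-well plates (5 μl) and pin-dosed with library compounds in DMSO over an 11-point threefold series, 47 μM to 0.79 nM. CellTiter-Glo One luminescence was read after 48 h at 37°C. Viability is the per-plate percentage relative to DMSO wells, with cell-free wells as background.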

[5] = test system: SEM cells; test: as above
Summary of the method: as §2

[6] = test system: P12-Ichikawa; test: as above
Summary of the method: as §2

CN1c2ccccc2C(=O)N2CCc3c([nH]c4ccccc34)C21 (stereo not given)
AUC of viability dose-response curve
Settings | [1] | [2] | [3]
HPLM + 10% dialyzed FBS | 445 | 453 | 470
RPMI 5 mM glucose + 10% FBS | 466 | 438 | 454
RPMI 5 mM glucose + 10% dialyzed FBS | 434 | 459 | 451

cell viability [%]
Settings | [4] | [5] | [6]
HPLM + 10% dialyzed FBS, 0.000781 µM | 122 | 136 | 122
HPLM + 10% dialyzed FBS, 0.00234 µM | 115 | 120 | 118
HPLM + 10% dialyzed FBS, 0.00702 µM | 118 | 114 | 112
HPLM + 10% dialyzed FBS, 0.0211 µM | 138 | 127 | 123
HPLM + 10% dialyzed FBS, 0.0632 µM | 130 | 125 | 119
HPLM + 10% dialyzed FBS, 0.19 µM | 135 | 120 | 120
HPLM + 10% dialyzed FBS, 0.569 µM | 151 | 122 | 116
HPLM + 10% dialyzed FBS, 1.71 µM | 118 | 131 | 115
HPLM + 10% dialyzed FBS, 5.12 µM | 107 | 125 | 111
HPLM + 10% dialyzed FBS, 15.4 µM | 105 | 117 | 116
HPLM + 10% dialyzed FBS, 46.1 µM | 102 | 101 | 117
RPMI 5 mM glucose + 10% FBS, 0.000781 µM | 116 | – | 125
RPMI 5 mM glucose + 10% FBS, 0.00234 µM | 108 | – | 139
RPMI 5 mM glucose + 10% FBS, 0.00702 µM | 122 | – | 113
RPMI 5 mM glucose + 10% FBS, 0.0211 µM | 116 | – | 119
RPMI 5 mM glucose + 10% FBS, 0.0632 µM | 112 | – | 121
RPMI 5 mM glucose + 10% FBS, 0.19 µM | 111 | – | 118
RPMI 5 mM glucose + 10% FBS, 0.569 µM | 123 | – | 122
RPMI 5 mM glucose + 10% FBS, 1.71 µM | 115 | – | 119
RPMI 5 mM glucose + 10% FBS, 5.12 µM | 102 | – | 117
RPMI 5 mM glucose + 10% FBS, 15.4 µM | 107 | – | 118
RPMI 5 mM glucose + 10% FBS, 46.1 µM | 106 | – | 111
RPMI 5 mM glucose + 10% dialyzed FBS, 0.000781 µM | – | 111 | 127
RPMI 5 mM glucose + 10% dialyzed FBS, 0.00234 µM | – | 105 | 122
RPMI 5 mM glucose + 10% dialyzed FBS, 0.00702 µM | – | 120 | 114
RPMI 5 mM glucose + 10% dialyzed FBS, 0.0211 µM | – | 114 | 125
RPMI 5 mM glucose + 10% dialyzed FBS, 0.0632 µM | – | 104 | 129
RPMI 5 mM glucose + 10% dialyzed FBS, 0.19 µM | – | 112 | 116
RPMI 5 mM glucose + 10% dialyzed FBS, 0.569 µM | – | 125 | 111
RPMI 5 mM glucose + 10% dialyzed FBS, 1.71 µM | – | 109 | 114
RPMI 5 mM glucose + 10% dialyzed FBS, 5.12 µM | – | 102 | 118
RPMI 5 mM glucose + 10% dialyzed FBS, 15.4 µM | – | 89.1 | 115
RPMI 5 mM glucose + 10% dialyzed FBS, 46.1 µM | – | 94.7 | 107

CCOC(=O)c1cncn1[C@H](C)c1ccccc1
AUC of viability dose-response curve
Settings | [1] | [2] | [3]
HPLM + 10% dialyzed FBS | 443 | 438 | 463
RPMI 5 mM glucose + 10% FBS | 477 | 468 | 452
RPMI 5 mM glucose + 10% dialyzed FBS | 442 | 435 | 466

cell viability [%]
Settings | [4] | [5] | [6]
HPLM + 10% dialyzed FBS, 0.000781 µM | – | 101 | 122
HPLM + 10% dialyzed FBS, 0.00234 µM | – | 92.8 | 123
HPLM + 10% dialyzed FBS, 0.00702 µM | – | 92.6 | 115
HPLM + 10% dialyzed FBS, 0.0211 µM | – | 89.6 | 127
HPLM + 10% dialyzed FBS, 0.0632 µM | – | 108 | 128
HPLM + 10% dialyzed FBS, 0.19 µM | – | 96.9 | 121
HPLM + 10% dialyzed FBS, 0.569 µM | – | 23.1 | 125
HPLM + 10% dialyzed FBS, 1.71 µM | – | 106 | 121
HPLM + 10% dialyzed FBS, 5.12 µM | – | 113 | 112
HPLM + 10% dialyzed FBS, 15.4 µM | – | 96.2 | 109
HPLM + 10% dialyzed FBS, 46.1 µM | – | 89.8 | 106
RPMI 5 mM glucose + 10% FBS, 0.000781 µM | 118 | 111 | 125
RPMI 5 mM glucose + 10% FBS, 0.00234 µM | 116 | 110 | 129
RPMI 5 mM glucose + 10% FBS, 0.00702 µM | 135 | 97.4 | 122
RPMI 5 mM glucose + 10% FBS, 0.0211 µM | 128 | 109 | 136
RPMI 5 mM glucose + 10% FBS, 0.0632 µM | 112 | 112 | 122
RPMI 5 mM glucose + 10% FBS, 0.19 µM | 115 | 114 | 116
RPMI 5 mM glucose + 10% FBS, 0.569 µM | 121 | 21.6 | 121
RPMI 5 mM glucose + 10% FBS, 1.71 µM | 127 | 107 | 113
RPMI 5 mM glucose + 10% FBS, 5.12 µM | 117 | 117 | 115
RPMI 5 mM glucose + 10% FBS, 15.4 µM | 119 | 108 | 114
RPMI 5 mM glucose + 10% FBS, 46.1 µM | 125 | 111 | 120
RPMI 5 mM glucose + 10% dialyzed FBS, 0.000781 µM | – | 118 | 121
RPMI 5 mM glucose + 10% dialyzed FBS, 0.00234 µM | – | 116 | 126
RPMI 5 mM glucose + 10% dialyzed FBS, 0.00702 µM | – | 93.8 | 119
RPMI 5 mM glucose + 10% dialyzed FBS, 0.0211 µM | – | 109 | 124
RPMI 5 mM glucose + 10% dialyzed FBS, 0.0632 µM | – | 128 | 128
RPMI 5 mM glucose + 10% dialyzed FBS, 0.19 µM | – | 102 | 122
RPMI 5 mM glucose + 10% dialyzed FBS, 0.569 µM | – | 26.4 | 126
RPMI 5 mM glucose + 10% dialyzed FBS, 1.71 µM | – | 115 | 121
RPMI 5 mM glucose + 10% dialyzed FBS, 5.12 µM | – | 98.9 | 115
RPMI 5 mM glucose + 10% dialyzed FBS, 15.4 µM | – | 106 | 113
RPMI 5 mM glucose + 10% dialyzed FBS, 46.1 µM | – | 97.7 | 111

ClC1=CC\2=C(NC(=O)\C(=C2N[C@@H]3CN4CCC3CC4)C5=NC6=C([NH]5)C=CC=C6)C=C1
AUC of viability dose-response curve
Settings | [1] | [2] | [3]
HPLM + 10% dialyzed FBS | 286 | 211 | 302
RPMI 5 mM glucose + 10% FBS | 257 | 200 | 263
RPMI 5 mM glucose + 10% dialyzed FBS | 276 | 218 | 291

cell viability [%]
Settings | [4] | [5] | [6]
HPLM + 10% dialyzed FBS, 0.000781 µM | 121 | 116 | 110
HPLM + 10% dialyzed FBS, 0.00234 µM | 123 | 98.7 | 117
HPLM + 10% dialyzed FBS, 0.00702 µM | 121 | 102 | 112
HPLM + 10% dialyzed FBS, 0.0211 µM | 123 | 89.2 | 113
HPLM + 10% dialyzed FBS, 0.0632 µM | 129 | 53.3 | 112
HPLM + 10% dialyzed FBS, 0.19 µM | 49.3 | 27.7 | 104
HPLM + 10% dialyzed FBS, 0.569 µM | 36.5 | 24.2 | 56.8
HPLM + 10% dialyzed FBS, 1.71 µM | 35.6 | 21 | 11.9
HPLM + 10% dialyzed FBS, 5.12 µM | 32.3 | 8.58 | 8.98
HPLM + 10% dialyzed FBS, 15.4 µM | 28.4 | 3.33 | 10.4
HPLM + 10% dialyzed FBS, 46.1 µM | 17.3 | 5.63 | 18.9
RPMI 5 mM glucose + 10% FBS, 0.000781 µM | 113 | 95.8 | 102
RPMI 5 mM glucose + 10% FBS, 0.00234 µM | 120 | 87.5 | 120
RPMI 5 mM glucose + 10% FBS, 0.00702 µM | 123 | 83.9 | 113
RPMI 5 mM glucose + 10% FBS, 0.0211 µM | 110 | 71 | 120
RPMI 5 mM glucose + 10% FBS, 0.0632 µM | 103 | 67.4 | 122
RPMI 5 mM glucose + 10% FBS, 0.19 µM | 46.4 | 22.8 | 55.9
RPMI 5 mM glucose + 10% FBS, 0.569 µM | 23.4 | 16.2 | 19.6
RPMI 5 mM glucose + 10% FBS, 1.71 µM | 17.5 | 11.2 | 13.1
RPMI 5 mM glucose + 10% FBS, 5.12 µM | 18 | 6.87 | 11
RPMI 5 mM glucose + 10% FBS, 15.4 µM | 12.4 | 2.16 | 9.4
RPMI 5 mM glucose + 10% FBS, 46.1 µM | 13.4 | 2.19 | 14.9
RPMI 5 mM glucose + 10% dialyzed FBS, 0.000781 µM | 101 | 99.5 | 116
RPMI 5 mM glucose + 10% dialyzed FBS, 0.00234 µM | 105 | 108 | 122
RPMI 5 mM glucose + 10% dialyzed FBS, 0.00702 µM | 113 | 98 | 119
RPMI 5 mM glucose + 10% dialyzed FBS, 0.0211 µM | 108 | 86.8 | 112
RPMI 5 mM glucose + 10% dialyzed FBS, 0.0632 µM | 117 | 63.2 | 116
RPMI 5 mM glucose + 10% dialyzed FBS, 0.19 µM | 44 | 25.4 | 95.8
RPMI 5 mM glucose + 10% dialyzed FBS, 0.569 µM | 23.7 | 19.1 | 45.1
RPMI 5 mM glucose + 10% dialyzed FBS, 1.71 µM | 20.4 | 15 | 14
RPMI 5 mM glucose + 10% dialyzed FBS, 5.12 µM | 25.2 | 8.88 | 12.5
RPMI 5 mM glucose + 10% dialyzed FBS, 15.4 µM | 18.6 | 2.81 | 12.4
RPMI 5 mM glucose + 10% dialyzed FBS, 46.1 µM | 18.2 | 3.39 | 16.4
